{"source": "patent US8470010B2", "about": "“Systems and methods for treating superficial venous malformations like spider veins” (Green Medical, Inc., priority 2006, dated 2013)", "key": {"[1]": {"test_system": "superficial venous anatomy of the ears", "experiment": "Photodynamic treatment of superficial venous anatomy of rabbit ears (IV LS11, then 664 nm LED light)", "assay_type": "in vivo, New Zealand White Rabbits", "description": "The superficial venous anatomy of the ears of New Zealand White Rabbits were treated by injecting light-reactive agent LS11 (Talaporfin Sodium) in doses selected to approximate a human dose, and thereafter exposing the superficial venous anatomy to light at a wavelength of 664 nm in dose periods ranging from 8 to 12 minutes.\nA total of twelve rabbits were treated. Each rabbit (weighing approximately six pounds) was intravaneously sedated for approximately 25 minutes using Ketamine and secured to a treatment table before being treated. The ears were shaved clean of hair and skin prepped with alcohol.\nLS11 (Talaporfin Sodium, from Light Sciences Oncology, Inc.) was selected as the light reactive agent 14. […] Different doses of LS11 (at a concentration of 0.125 mg per cc) were administered to different rabbits, at 0.25 mg/kg; 0.50 mg/kg; 1.0 mg/kg; and 1.5 mg/kg, respectively. The doses were selected to approximate a human dose of 3 mg/ml to 10 mg/ml (a dose of 0.2 to 0.5 mg/kg).\nThe doses were administered to each rabbit's ear intravenously in a slow bolus method over a period of 5 minutes. After a pre-selected delay of ten minutes following the injection, a light-applying carrier 60 of the type shown in FIG. 18A (with a linear array of three LED's) was laid on the head of the rabbit over the treated ear, which was held tight against the carrier (see FIG. 20). […]"}, "[2]": {"test_system": "cancer (solid tumors)", "conditions": "with array of light emitting diodes; preclinical and human clinical trials in United States, Europe and Japan; cited from earlier work"}}, "data": [{"smiles": "C=Cc1c(C)c2cc3nc(c(CC(=O)N[C@@H](CC(=O)O)C(=O)O)c4[nH]c(cc5nc(cc1[nH]2)C(C)=C5CC)c(C)c4C(=O)O)[C@@H](CCC(=O)O)[C@@H]3C", "note": "[LS11, mono-L-aspartyl chlorine e6]", "values": [{"measurement": "Visible alterations in the superficial venous anatomy (shrinkage of veins) in treated ear", "setting": "[1]; IV 0.25, 0.50, 1.0 or 1.5 mg/kg, 664 nm light for 8 to 12 minutes, other ear as control", "value": "Visible alterations in the superficial venous anatomy due to shrinkage of veins in the treated regions were observed"}, {"measurement": "Alteration of superficial venous anatomy, treated ear vs control ear (FIG. 21)", "setting": "[1]; LS11 dose 1.5 mg/kg IV, light dose 8 min of 664 nm light", "value": "visibly alter the superficial venous anatomy, due to shrinkage of veins in the targeted region"}, {"measurement": "Efficacy in treating cancer (solid tumors)", "setting": "[2]", "value": "has shown efficacy in treating cancer (solid tumors)"}]}]}
